According to PubChem BioAssay (NCI):
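How tested: cells in 96-well plates exposed to compound for 48 hours at five concentrations. Definition used: TGI = concentration required for complete inhibition of growth.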

Experiments:
Assay in all cases: NCI-60 cell line screen, 48 h
786-0 renal = system: 786-0 renal
OVCAR-8 ovarian = system: OVCAR-8 ovarian
T-47D breast = system: T-47D breast
HS 578T breast = system: HS 578T breast
SW-620 colon = system: SW-620 colon
SR leukemia = system: SR leukemia
ACHN renal = system: ACHN renal
UACC-62 melanoma = system: UACC-62 melanoma
RXF 393 renal = system: RXF 393 renal
OVCAR-4 ovarian = system: OVCAR-4 ovarian
PC-3 prostate = system: PC-3 prostate
OVCAR-5 ovarian = system: OVCAR-5 ovarian
MALME-3M melanoma = system: MALME-3M melanoma
HL-60(TB) leukemia = system: HL-60(TB) leukemia

Q: Which results are given for `CN(C)CCCN1CCC2(CCC(C(C)(C)C)CC2)CC1`?
A: TGI (786-0 renal): 3.09 µM; TGI (OVCAR-8 ovarian): 16.5 µM; TGI (T-47D breast): 3.99 µM; TGI (HS 578T breast): 4.89 µM; TGI (SW-620 colon): 7.87 µM; TGI (SR leukemia): 4.85 µM; TGI (ACHN renal): 18.8 µM; TGI (UACC-62 melanoma): 3.33 µM; TGI (RXF 393 renal): 4.13 µM; TGI (OVCAR-4 ovarian): 17.3 µM; TGI (PC-3 prostate): 10.8 µM; TGI (OVCAR-5 ovarian): 9.08 µM; TGI (MALME-3M melanoma): 3.4 µM; TGI (HL-60(TB) leukemia): 2.23 µM

Q: How did the TGI (786-0 renal) turn out when `CC(CO)(CO)N1C(=O)C2C3C=CC(C3)C2C1=O` (configuration not stated) was run?
A: The TGI was over 100 µM.

Q: And the TGI (OVCAR-8 ovarian)?
A: The TGI was over 100 µM.

Q: And the TGI (T-47D breast)?
A: Its TGI is over 100 µM.

Q: What about the TGI (HS 578T breast) of the same compound?
A: The TGI was over 100 µM.

Q: What about the TGI (SW-620 colon) of the same compound?
A: The TGI was over 100 µM.

Q: And the TGI (SR leukemia)?
A: Its TGI is over 100 µM.

Q: And the TGI (ACHN renal)?
A: The TGI was over 100 µM.

Q: What about the TGI (UACC-62 melanoma) of the same compound?
A: The TGI was over 100 µM.

Q: And the TGI (RXF 393 renal)?
A: Its TGI is over 100 µM.

Q: And the TGI (OVCAR-4 ovarian)?
A: The TGI was over 100 µM.

Q: And the TGI (PC-3 prostate)?
A: Its TGI is over 100 µM.

Q: And the TGI (OVCAR-5 ovarian)?
A: Its TGI is over 100 µM.

Q: And the TGI (MALME-3M melanoma)?
A: The TGI was over 100 µM.

Q: What about the TGI (HL-60(TB) leukemia) of the same compound?
A: Its TGI is over 100 µM.

Q: Which TGI (786-0 renal) does the source give for `COc1cc(NS(C)(=O)=O)ccc1Nc1c2ccccc2nc2c1[nH]c1ccc(NC3OC(CO)C(O)C(O)C3O)cc12` (configuration not stated) here?
A: Its TGI is 0.339 µM.

Q: What about the TGI (OVCAR-8 ovarian) of the same compound?
A: Its TGI is 0.95 µM.

Q: What about the TGI (T-47D breast) of the same compound?
A: The TGI was 15.7 µM.

Q: And the TGI (HS 578T breast)?
A: The TGI was 4.29 µM.

Q: And the TGI (SW-620 colon)?
A: The TGI was 2.08 µM.

Q: And the TGI (SR leukemia)?
A: Its TGI is over 100 µM.

Q: And the TGI (ACHN renal)?
A: The TGI was 0.137 µM.

Q: What about the TGI (UACC-62 melanoma) of the same compound?
A: Its TGI is 1.08 µM.

Q: And the TGI (RXF 393 renal)?
A: The TGI was 0.61 µM.

Q: What about the TGI (OVCAR-4 ovarian) of the same compound?
A: Its TGI is 4.66 µM.

Q: And the TGI (PC-3 prostate)?
A: Its TGI is 3.6 µM.

Q: What about the TGI (OVCAR-5 ovarian) of the same compound?
A: Its TGI is 2.09 µM.

Q: What about the TGI (MALME-3M melanoma) of the same compound?
A: Its TGI is 1.43 µM.

Q: What about the TGI (HL-60(TB) leukemia) of the same compound?
A: The TGI was 0.282 µM.

Q: What does the source list for `Nc1nc(N)c2c3c(cnc2n1)CC(c1ccccc1)CC3` (configuration not stated)?
A: TGI (786-0 renal): 24.3 µM; TGI (OVCAR-8 ovarian): 26.6 µM; TGI (T-47D breast): 56.8 µM; TGI (HS 578T breast): > 100 µM; TGI (SW-620 colon): > 100 µM; TGI (SR leukemia): 66.1 µM; TGI (ACHN renal): 31.7 µM; TGI (UACC-62 melanoma): > 100 µM; TGI (RXF 393 renal): 47.9 µM; TGI (OVCAR-4 ovarian): 41.9 µM; TGI (PC-3 prostate): > 100 µM; TGI (OVCAR-5 ovarian): > 100 µM; TGI (MALME-3M melanoma): > 100 µM; TGI (HL-60(TB) leukemia): 24.8 µM

Q: Which results are given for `O=C(Oc1ccccn1)c1cc2cc(CCl)ccc2oc1=O`?
A: TGI (786-0 renal): 39.6 µM; TGI (OVCAR-8 ovarian): > 100 µM; TGI (T-47D breast): > 100 µM; TGI (HS 578T breast): 59.6 µM; TGI (SW-620 colon): > 100 µM; TGI (SR leukemia): > 100 µM; TGI (ACHN renal): > 100 µM; TGI (UACC-62 melanoma): 85.6 µM; TGI (RXF 393 renal): 41.3 µM; TGI (OVCAR-4 ovarian): 55 µM; TGI (PC-3 prostate): 38.5 µM; TGI (OVCAR-5 ovarian): > 100 µM; TGI (MALME-3M melanoma): 31.3 µM; TGI (HL-60(TB) leukemia): > 100 µM

Q: Which results are given for `CC(C)=CC[C@]12CCN[C@H]1N(S(=O)(=O)c1ccccc1)c1ccccc12`?
A: TGI (786-0 renal): 32.2 µM; TGI (OVCAR-8 ovarian): 33.9 µM; TGI (T-47D breast): 92.9 µM; TGI (HS 578T breast): 44.5 µM; TGI (SW-620 colon): 36.9 µM; TGI (SR leukemia): 51 µM; TGI (ACHN renal): 50.7 µM; TGI (UACC-62 melanoma): 29.2 µM; TGI (RXF 393 renal): 27.6 µM; TGI (OVCAR-4 ovarian): 42 µM; TGI (PC-3 prostate): 27.4 µM; TGI (OVCAR-5 ovarian): > 100 µM; TGI (MALME-3M melanoma): 32.7 µM; TGI (HL-60(TB) leukemia): 45.6 µM

Q: What does the source list for `CCOC(=O)CN1C(=O)c2ccc(NC(=O)C(=O)O)cc2S1(=O)=O`?
A: TGI (786-0 renal): > 100 µM; TGI (OVCAR-8 ovarian): > 100 µM; TGI (T-47D breast): > 100 µM; TGI (HS 578T breast): > 100 µM; TGI (SW-620 colon): > 100 µM; TGI (SR leukemia): > 100 µM; TGI (ACHN renal): > 100 µM; TGI (UACC-62 melanoma): > 100 µM; TGI (RXF 393 renal): > 100 µM; TGI (OVCAR-4 ovarian): > 100 µM; TGI (PC-3 prostate): > 100 µM; TGI (OVCAR-5 ovarian): > 100 µM; TGI (MALME-3M melanoma): > 100 µM; TGI (HL-60(TB) leukemia): > 100 µM

Q: `Cc1ccnc2[nH]c3ccccc3c(=O)c12` was tested. Which TGI (786-0 renal) did it give?
A: The TGI was over 100 µM.

Q: What about the TGI (OVCAR-8 ovarian) of the same compound?
A: Its TGI is over 100 µM.

Q: What about the TGI (T-47D breast) of the same compound?
A: The TGI was over 100 µM.

Q: What about the TGI (HS 578T breast) of the same compound?
A: The TGI was 48 µM.

Q: And the TGI (SW-620 colon)?
A: The TGI was over 100 µM.

Q: And the TGI (SR leukemia)?
A: The TGI was over 100 µM.

Q: What about the TGI (ACHN renal) of the same compound?
A: Its TGI is over 100 µM.

Q: What about the TGI (UACC-62 melanoma) of the same compound?
A: The TGI was 40 µM.

Q: What about the TGI (RXF 393 renal) of the same compound?
A: Its TGI is 41.8 µM.

Q: What about the TGI (OVCAR-4 ovarian) of the same compound?
A: The TGI was over 100 µM.

Q: What about the TGI (PC-3 prostate) of the same compound?
A: Its TGI is 81.6 µM.

Q: And the TGI (OVCAR-5 ovarian)?
A: The TGI was over 100 µM.

Q: What about the TGI (MALME-3M melanoma) of the same compound?
A: Its TGI is 43.1 µM.

Q: What about the TGI (HL-60(TB) leukemia) of the same compound?
A: Its TGI is 61.3 µM.
